We go through 16 compounds from patent US6608086B2, “Dihydropyridines and new uses thereof” (Synaptic Pharmaceutical Corporation, priority 1993, dated 2003).

Where two headings read alike, the source gives them in different places.

Experiment [1] addresses T1, α1A Human Adrenergic Receptor (Homo sapiens, UniProt P25100).
T1 construct: The entire coding region of α1A (1719 bp); expressed in transfected cells
T1 sequence (P25100 1-572): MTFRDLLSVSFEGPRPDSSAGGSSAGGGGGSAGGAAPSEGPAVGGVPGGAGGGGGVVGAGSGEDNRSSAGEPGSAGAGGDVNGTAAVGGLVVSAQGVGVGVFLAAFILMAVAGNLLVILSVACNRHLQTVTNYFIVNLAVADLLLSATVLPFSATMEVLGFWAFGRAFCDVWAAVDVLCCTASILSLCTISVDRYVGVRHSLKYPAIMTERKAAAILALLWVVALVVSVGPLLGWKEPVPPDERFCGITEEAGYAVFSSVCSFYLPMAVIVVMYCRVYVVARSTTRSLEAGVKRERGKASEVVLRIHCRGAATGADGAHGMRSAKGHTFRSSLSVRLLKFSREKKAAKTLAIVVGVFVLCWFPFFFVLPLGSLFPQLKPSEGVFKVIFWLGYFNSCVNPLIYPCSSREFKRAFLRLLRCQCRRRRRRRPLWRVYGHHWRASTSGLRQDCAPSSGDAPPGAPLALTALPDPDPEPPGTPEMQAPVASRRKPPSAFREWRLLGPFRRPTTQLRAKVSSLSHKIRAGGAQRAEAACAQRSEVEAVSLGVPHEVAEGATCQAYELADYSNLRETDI
Nature of the experiment: Radioligand binding, [3H]prazosin, cloned human α1A adrenergic receptor. Put shortly: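 Transfected LM(tk−) cells are lysed by sonication and membranes collected at 30,000× g. Membranes then bind 0.5 nM [3H]prazosin for 20 min at 37° C, and the reaction is stopped by filtration over GF/B filters, with 10 μM phentolamine giving nonspecific binding.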

In a further experiment the target is T2, α2A receptor (Homo sapiens, UniProt P08913).
T2 construct: host or cells: LM(tk-) cells, line L-α2A
T2 sequence (P08913 1-465): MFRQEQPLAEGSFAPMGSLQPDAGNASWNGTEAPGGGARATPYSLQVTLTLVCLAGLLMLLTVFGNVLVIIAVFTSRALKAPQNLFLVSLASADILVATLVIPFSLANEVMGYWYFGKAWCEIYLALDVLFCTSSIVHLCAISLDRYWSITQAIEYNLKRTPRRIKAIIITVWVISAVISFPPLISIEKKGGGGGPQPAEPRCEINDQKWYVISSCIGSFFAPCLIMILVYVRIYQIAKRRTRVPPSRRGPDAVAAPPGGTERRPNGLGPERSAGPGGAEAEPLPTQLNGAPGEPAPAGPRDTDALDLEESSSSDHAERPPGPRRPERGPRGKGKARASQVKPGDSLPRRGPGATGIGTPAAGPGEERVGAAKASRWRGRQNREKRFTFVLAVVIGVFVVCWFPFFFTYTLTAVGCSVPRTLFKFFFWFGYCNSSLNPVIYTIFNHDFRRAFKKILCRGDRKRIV
Nature of the experiment: Competition binding, [3H]rauwolscine, human α2A receptor. Put shortly: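 Equilibrium displacement of [3H]rauwolscine (0.5 nM) measured on membranes from stably transfected LM(tk−) lines, one per α2 subtype, in glycylglycine buffer at pH 7.6. Nonspecific binding set by 10 μM phentolamine; separation by filtration.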

A further experiment has as its target T3, L-type calcium channel (Rattus norvegicus, UniProt P22002).
T3 construct: membrane fragments of rat cardiac muscle; from tissue; host or cells: rat cardiac muscle membranes
Nature of the experiment: Competition binding of [3H]nitrendipine to membrane fragments of rat cardiac muscle.

Setting [2] is: [3H]prazosin, cloned human α1A receptor, LM(tk-) cell membranes, read-out: PKi alpha-1 1a (converted).
[3] abbreviates: [3H]rauwolscine, human α2A receptor, LM(tk-) cells, read-out: PKi alpha-2 2a (converted).
Where [4] appears, read: [3H]prazosin, cloned human receptor, LM(tk-) cell membranes, mean, read-out: PKi alpha-1 1a (converted).
Where [5] appears, read: [3H]rauwolscine, human receptor, LM(tk-) cell lysates, mean, read-out: PKi alpha-2 2a (converted).
Setting [6] is: PKi alpha-1 1a, [3H]prazosin, cloned human α1A receptor, LM(tk-) cell membranes.
Where [7] appears, read: PKi alpha-1 1a, [3H]prazosin, cloned human receptor, LM(tk-) cell membranes, mean.

T3 sequence (P22002 whole entry, other chains not shown, the tested form may be a part): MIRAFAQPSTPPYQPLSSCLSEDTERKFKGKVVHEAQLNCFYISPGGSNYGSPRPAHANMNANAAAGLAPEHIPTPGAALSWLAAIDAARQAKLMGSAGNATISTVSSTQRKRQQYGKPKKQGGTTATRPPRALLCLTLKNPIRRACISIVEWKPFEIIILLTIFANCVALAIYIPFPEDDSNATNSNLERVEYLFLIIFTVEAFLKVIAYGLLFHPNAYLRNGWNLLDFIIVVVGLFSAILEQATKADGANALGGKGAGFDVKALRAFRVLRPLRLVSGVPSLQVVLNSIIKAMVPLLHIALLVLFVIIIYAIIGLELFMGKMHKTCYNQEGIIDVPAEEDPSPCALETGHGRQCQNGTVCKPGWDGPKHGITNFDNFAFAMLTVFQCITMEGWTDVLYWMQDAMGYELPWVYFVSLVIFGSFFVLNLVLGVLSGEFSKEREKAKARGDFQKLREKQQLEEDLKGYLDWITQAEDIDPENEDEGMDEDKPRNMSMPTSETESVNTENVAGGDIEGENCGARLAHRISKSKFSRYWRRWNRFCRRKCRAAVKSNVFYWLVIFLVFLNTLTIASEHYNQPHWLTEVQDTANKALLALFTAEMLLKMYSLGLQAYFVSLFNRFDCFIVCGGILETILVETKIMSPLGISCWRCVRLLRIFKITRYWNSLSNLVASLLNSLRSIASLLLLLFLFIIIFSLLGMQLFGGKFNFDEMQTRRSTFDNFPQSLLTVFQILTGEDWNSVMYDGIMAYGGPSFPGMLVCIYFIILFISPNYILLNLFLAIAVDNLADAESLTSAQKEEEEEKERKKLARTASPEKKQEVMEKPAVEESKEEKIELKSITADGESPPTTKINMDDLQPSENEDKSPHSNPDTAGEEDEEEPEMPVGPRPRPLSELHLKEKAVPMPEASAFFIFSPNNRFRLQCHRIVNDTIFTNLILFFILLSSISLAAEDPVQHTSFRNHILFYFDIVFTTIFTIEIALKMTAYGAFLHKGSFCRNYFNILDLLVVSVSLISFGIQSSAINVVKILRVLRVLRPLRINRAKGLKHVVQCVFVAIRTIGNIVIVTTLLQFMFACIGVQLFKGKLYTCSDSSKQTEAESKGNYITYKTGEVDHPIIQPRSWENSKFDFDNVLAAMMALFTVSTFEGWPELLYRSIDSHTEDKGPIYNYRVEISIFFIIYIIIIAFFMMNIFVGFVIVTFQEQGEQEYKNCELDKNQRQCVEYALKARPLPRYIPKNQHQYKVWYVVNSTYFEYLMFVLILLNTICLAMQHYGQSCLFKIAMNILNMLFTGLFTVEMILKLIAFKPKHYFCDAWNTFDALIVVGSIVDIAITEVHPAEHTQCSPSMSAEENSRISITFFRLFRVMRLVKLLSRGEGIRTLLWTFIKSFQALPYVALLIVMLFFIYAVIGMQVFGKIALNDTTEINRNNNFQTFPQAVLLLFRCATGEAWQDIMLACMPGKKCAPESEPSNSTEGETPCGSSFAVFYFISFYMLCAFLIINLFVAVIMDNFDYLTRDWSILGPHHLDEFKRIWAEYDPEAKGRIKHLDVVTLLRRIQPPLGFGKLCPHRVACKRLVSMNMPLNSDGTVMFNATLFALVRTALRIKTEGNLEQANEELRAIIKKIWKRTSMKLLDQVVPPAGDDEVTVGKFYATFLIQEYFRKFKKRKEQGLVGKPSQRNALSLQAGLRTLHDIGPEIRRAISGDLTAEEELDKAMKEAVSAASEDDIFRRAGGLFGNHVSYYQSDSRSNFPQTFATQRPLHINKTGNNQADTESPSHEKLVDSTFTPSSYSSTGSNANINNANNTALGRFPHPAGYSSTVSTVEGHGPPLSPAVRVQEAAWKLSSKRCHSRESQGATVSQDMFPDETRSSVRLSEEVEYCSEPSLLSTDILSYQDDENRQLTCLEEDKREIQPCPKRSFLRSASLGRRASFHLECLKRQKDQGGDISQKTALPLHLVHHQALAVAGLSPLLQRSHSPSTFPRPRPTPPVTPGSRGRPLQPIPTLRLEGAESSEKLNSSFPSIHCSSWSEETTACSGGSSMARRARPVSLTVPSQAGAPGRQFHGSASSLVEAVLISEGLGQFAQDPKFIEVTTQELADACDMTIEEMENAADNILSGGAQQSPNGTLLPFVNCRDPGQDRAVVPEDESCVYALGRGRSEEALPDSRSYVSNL
T3 sequence (P54290 25-944 partner limits assumed, other chains not shown): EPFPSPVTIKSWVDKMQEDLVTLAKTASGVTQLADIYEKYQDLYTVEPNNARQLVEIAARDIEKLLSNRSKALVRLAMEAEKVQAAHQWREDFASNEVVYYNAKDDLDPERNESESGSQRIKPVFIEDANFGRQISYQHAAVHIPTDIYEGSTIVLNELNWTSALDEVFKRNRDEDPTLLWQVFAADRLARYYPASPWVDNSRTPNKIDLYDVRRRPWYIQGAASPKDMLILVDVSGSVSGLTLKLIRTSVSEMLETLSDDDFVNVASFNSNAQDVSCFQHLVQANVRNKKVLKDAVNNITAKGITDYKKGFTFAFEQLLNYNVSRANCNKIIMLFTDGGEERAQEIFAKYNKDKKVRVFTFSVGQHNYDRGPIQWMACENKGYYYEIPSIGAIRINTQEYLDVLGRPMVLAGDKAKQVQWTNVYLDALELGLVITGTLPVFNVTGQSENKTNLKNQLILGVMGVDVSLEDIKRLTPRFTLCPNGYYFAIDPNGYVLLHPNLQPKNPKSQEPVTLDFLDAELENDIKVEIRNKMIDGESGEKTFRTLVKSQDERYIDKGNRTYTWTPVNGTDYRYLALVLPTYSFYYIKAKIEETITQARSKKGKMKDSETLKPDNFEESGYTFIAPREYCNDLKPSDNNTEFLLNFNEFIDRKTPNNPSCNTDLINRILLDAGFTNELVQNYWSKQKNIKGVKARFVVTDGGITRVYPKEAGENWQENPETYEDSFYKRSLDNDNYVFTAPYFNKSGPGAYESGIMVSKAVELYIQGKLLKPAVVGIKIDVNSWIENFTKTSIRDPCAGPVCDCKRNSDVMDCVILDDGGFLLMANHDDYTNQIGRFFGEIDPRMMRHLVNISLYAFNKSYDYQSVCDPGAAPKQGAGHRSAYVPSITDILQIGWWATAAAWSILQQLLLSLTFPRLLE
T3 sequence (P54290 945-1091 partner limits assumed, other chains not shown): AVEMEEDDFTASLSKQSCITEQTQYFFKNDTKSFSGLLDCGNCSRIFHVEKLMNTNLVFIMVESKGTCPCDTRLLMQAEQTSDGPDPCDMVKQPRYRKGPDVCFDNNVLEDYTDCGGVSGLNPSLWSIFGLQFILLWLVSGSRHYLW

For the compound `COC(=O)C1(c2ccccc2)CCN(CCCNC(=O)C2=C(CCCCN)NC(C)=C(C(N)=O)C2c2ccc([N+](=O)[O-])cc2)CC1` (centres unmarked) [Example 177, 2-(4-Aminobutyl)-5-carboxamido-1,4-dihydro-3-{N-[3-(4-methoxycarbonyl-4-phenylpiperidin-1-yl)propyl]}carboxamido-6-methyl-4-(4-nitrophenyl)pyridine], the Ki in experiment [1] (PKi alpha-1 1a) was 1410 nM; on α2A receptor, 1660 nM; on L-type calcium channel (PKi Ca), 93300 nM.
As to `CCNC(=O)C1=C(CC)NC(CC)=C(C(=O)NCCCN2CCC(C(=O)OCC)(c3ccccc3)CC2)C1c1ccc([N+](=O)[O-])cc1` (centres unmarked) [Example 182, 2,6-Diethyl-1,4-dihydro-3-{N-[3-(4-ethoxycarbonyl-4-phenylpiperidin-1-yl)propyl]}carboxamido-5-(N-ethyl)carboxamido-4(4-nitrophenyl)pyridine], the Ki in experiment [1] (PKi alpha-1 1a) was 3390 nM; at α2A receptor, 2190 nM; on L-type calcium channel (PKi Ca), 355000 nM.
As to `CCC1=C(C(=O)NC)C(c2ccc([N+](=O)[O-])cc2)C(C(=O)NCCCN2CCC(C#N)(c3ccccc3)CC2)=C(CC)N1` (centres unmarked) [Example 126, 3-{N-[3-(4-Cyano-4-phenylpiperidin-1-yl)propyl]}carboxamido-1,4-dihydro-2,6-diethyl-5-(1-methyl)carboxamido-4-(4-nitrophenyl)pyridine], in experiment [1] ([3H]prazosin, cloned human α1A receptor, LM(tk−) cell membranes), the “pKi alpha-1 1a” value is 5.15. For the same compound, the “pKi alpha-2 2a” value at α2A receptor ([3H]rauwolscine, human α2A receptor, LM(tk−) cells) is listed as 5.33. Also, the “pKi Ca” value at L-type calcium channel ([3H]nitrendipine, rat cardiac muscle membrane fragments, L-type calcium channel) is given as 6.34.
As for `COC(=O)C1(c2ccccc2)CCN(CCCNC(=O)C2=C(COCCN)NC(C)=C(C(C)=O)C2c2ccc(F)cc2)CC1` (centres unmarked) [Example 245, 5-Acetyl-2-((2-aminoethyl)oxy)methyl-4-(4-fluoro)phenyl-1,4-dihydro-3-(N-3-(4-methoxycarbonyl-4-phenylpiperidin-1-yl)propyl)carboxamido-6-methylpyridine], the results for the Ki (in experiment [1] (setting [2]); on α2A receptor (setting [3])) were 977 nM and 1050 nM, respectively.
For the compound `CCOC(=O)C1(c2ccccc2)CCN(CCCNC(=O)C2=C(COCCN)NC(CC)=C(C(=O)NC)C2c2ccc([N+](=O)[O-])cc2)CC1` (centres unmarked) [Example 194, 2-[(2-Aminoethoxy)methyl]-3-{N-[3-(4-ethoxycarbonyl-4-phenylpiperidin-1-yl)propyl]}carboxamido-1,4-dihydro-6-ethyl-5-(N-methyl) carboxamido-4-(4-nitrophenyl) pyridine], the results for the Ki (in experiment [1] (setting [4]); on α2A receptor (setting [5])) were 4900 nM and 3160 nM, respectively.
On to `CC(=O)C1=C(C)NC(COCCN)=C(C(=O)NCCCN2CCC(c3ccccc3)(c3ccccc3)CC2)C1c1ccc(F)cc1` (centres unmarked) [Example 242, 5-Acetyl-2-((2-aminoethyl)oxy)methyl-4-(4-fluoro)phenyl-1,4-dihydro-6-methyl-3-(N-(3-(4,4-diphenylpiperidin-1-yl)propyl))carboxamidopyridine], for which the Ki in experiment [1] (setting [6]) is 224 nM; on α2A receptor (setting [3]) it was 1410 nM.
For the compound `CCC1=C(C(=O)NCCOC)C(c2ccc([N+](=O)[O-])cc2)C(C(=O)NCCCN2CCC(c3ccccc3)(c3ccccc3)CC2)=C(COC)N1` (centres unmarked) [Example 247, 6-Ethyl-1,4-dihydro-5-N-((2-methoxy)ethyl)carboxamido-2-(methyloxy)methyl-4-(4-nitro)phenyl-3-(N-(3-(4,4-diphenylpiperidin-1-yl)propyl)) carboxamidopyridine], the Ki was 977 nM in experiment [1] (setting [6]) and 589 nM on α2A receptor (setting [3]).
For `CCC1=C(C(=O)NC)C(c2ccc([N+](=O)[O-])cc2)C(C(=O)NCCCN2CCC(c3ccccc3)(c3ccccc3)CC2)=C(CCCCN)N1` (centres unmarked) [Example 172, 2-(4-Aminobutyl)-6-ethyl-1,4-dihydro-5-(N-methyl)carboxamido-4-(4-nitrophenyl)-3-{N-[3-(4,4-diphenylpiperidin-1-yl)propyl]}carboxamidopyridine], the Ki in experiment [1] (setting [7]) is 813 nM; at α2A receptor (setting [5]), 2340 nM.
As to `CC(=O)C1=C(C)NC(COCCN)=C(C(=O)NCCCN2CCC(c3ccccc3)(c3ccccc3)CC2)C1c1ccc2c(c1)OCO2` (centres unmarked) [Example 239, 5-Acetyl-2-((2-aminoethyl)oxy)methyl-1,4-dihydro-6-methyl-4-(3,4-methylenedioxy)phenyl-3-(N-(3-(4,4-dipheylpiperidin-1-yl)propyl))carboxamidopyridine], the Ki is 275 nM in experiment [1] (setting [6]) and 832 nM at α2A receptor (setting [3]).
In the case of `CCC1=C(C(N)=O)C(c2ccc([N+](=O)[O-])cc2)C(C(=O)NCCCN2CCC(C(=O)OC)(c3ccccc3)CC2)=C(CCCCN=[N+]=[N-])N1` (centres unmarked) [Example 165, 2-(4-Azidobutyl)-3-{N-[3-(4-methoxycarbonyl-4-phenylpiperidin-1-yl)propyl]}carboxamido-5-carboxamido-6-ethyl-1,4-dihydro-4-(4-nitrophenyl)pyridine], the Ki in experiment [1] (setting [4]) was 1410 nM; on α2A receptor (setting [5]), 3020 nM.
On to `CCC1=C(C(=O)OCCO)C(c2ccc([N+](=O)[O-])cc2)C(C(=O)NCCCN2CCC(c3ccccc3)(c3ccccc3)CC2)=C(COC)N1` (centres unmarked) [Example 246], for which the Ki in experiment [1] (setting [6]) is 316 nM; on α2A receptor (setting [3]), 676 nM.
Turning to `CNC(=O)C1=C(C)NC(C)=C(C(=O)NCCCN2CCC(c3ccccc3)(c3ccccc3)CC2)C1c1ccc2c(c1)OCCO2` (centres unmarked) [Example 163], the values for the Ki (in experiment [1] (setting [7]); on α2A receptor (setting [5])) were 776 nM and 1170 nM, respectively.
Consider `CCOC(=O)C1(c2ccccc2)CCN(CCCNC(=O)C2=C(COCC(F)(F)F)NC(C)=C(C(N)=O)C2c2ccc([N+](=O)[O-])cc2)CC1` (centres unmarked) [Example 243, 5-Carboxamido-3-(N-(3-(4-ethoxycarbonyl-4-phenylpiperidin-1yl)propyl))carboxamido-2-((2,2,2-trifluoroethyl)oxy)methyl-1,4dihydro-6-methyl-4-(4-nitro)phenylpyridine], for which the figures for the Ki (in experiment [1] (setting [2]); on α2A receptor (setting [3])) were 1510 nM and 2240 nM, respectively.
Consider `CC(=O)C1=C(C)NC(COCCN)=C(C(=O)NCCCN2CCC(c3ccccc3)(c3ccccc3)CC2)C1c1ccc([N+](=O)[O-])cc1` (centres unmarked) [Example 237, 5-Acetyl-2-((2-aminoethyl)oxy)methyl-1,4-dihydro-6-methyl-4-(4-nitro)phenyl 3-(N-(3-(4,4-diphenylpiperidin-1-yl)propyl)) carboxamidopyridine], for which the results for the Ki (in experiment [1] (setting [7]); at α2A receptor (setting [5])) were 380 nM and 794 nM, respectively.
With `CCNC(=O)C1=C(CC)NC(CC)=C(C(=O)NCCCN2CCC(C(=O)OC)(c3ccccc3)CC2)C1c1ccc([N+](=O)[O-])cc1` (centres unmarked) [Example 180, 2,6-Diethyl-1,4-dihydro-5-(N-ethyl)carboxamido-3-{N-[3-(4-methoxycarbonyl-4-phenylpiperidin-1-yl)propyl]}carboxamido-4-(4-nitrophenyl)pyridine], the Ki is 3020 nM in experiment [1] (PKi alpha-1 1a) and 6920 nM at α2A receptor.
Turning to `CC1=C(C(=O)NCCCN2CCC(c3ccccc3)(c3ccccc3)CC2)C(c2ccc([N+](=O)[O-])cc2)C(C(=O)N(C)C)=C(C)N1` (centres unmarked) [Example 39, 1,4-Dihydro-2,6-dimethyl-3-(N,N-dimethyl) carboxamido-4-(4-nitrophenyl)-5-{N-[3-(4,4-diphenylpiperidin-1-yl)propyl]}carboxamidopyridine], the “pKi alpha-1 1a” value in experiment [1] ([3H]prazosin, cloned human receptor in LM(tk-) cell membranes, SEM and n in lines below) came out at 5.77. Also, on L-type calcium channel ([3H]nitrendipine, rat cardiac muscle membranes, SEM and n in lines below, read-out: pKi Ca (converted)), the Ki is 44700 nM.
